Results as given in patent publication US11459323B2, “Monocyclic β-lactam compound for treating bacterial infection” (MEDSHINE DISCOVERY INC., priority 2018, dated 2022).
In brackets after ≈: the same amount, converted by molar mass.

Key:
Test in all cases: MIC on clinically isolated bacteria
Format in all cases: cell-based
[1] = system: Acinetobacter baumannii C270; details: Acinetobacter baumannii C270; read-out: Minimum Inhibitory Concentration (MIC)
Text: (§1) Twenty-five strains of clinically isolated Acinetobacter baumannii and twenty-seven strains of Pseudomonas aeruginosa were respectively selected and used to determine the minimum inhibitory concentration (MIC) of the compounds by micro-liquid dilution method according to the Institute of Clinical and Laboratory Standard (CLSI) requirements.

[2] = system: Pseudomonas aeruginosa W42; details: read-out: MIC
Text: as §1

[3] = system: Pseudomonas aeruginosa W21; details: read-out: MIC
Text: as §1

[4] = system: Pseudomonas aeruginosa W24; details: read-out: MIC
Text: as §1

[5] = system: Acinetobacter baumannii C394; details: Acinetobacter baumannii C394; read-out: Minimum Inhibitory Concentration (MIC)
Text: as §1

[6] = system: Acinetobacter baumannii C333; details: Acinetobacter baumannii C333; read-out: Minimum Inhibitory Concentration (MIC)
Text: as §1

[7] = system: Pseudomonas aeruginosa W13; details: read-out: MIC
Text: as §1

[8] = system: Pseudomonas aeruginosa W28; details: read-out: MIC
Text: as §1

[9] = system: Acinetobacter baumannii C328; details: Acinetobacter baumannii C328; read-out: Minimum Inhibitory Concentration (MIC)
Text: as §1

[10] = system: Acinetobacter baumannii C403; details: Acinetobacter baumannii C403; read-out: Minimum Inhibitory Concentration (MIC)
Text: as §1

[11] = system: Pseudomonas aeruginosa W32; details: read-out: MIC
Text: as §1

[12] = system: Pseudomonas aeruginosa W35; details: read-out: MIC
Text: as §1

[13] = system: Pseudomonas aeruginosa W6; details: read-out: MIC
Text: as §1

[14] = system: Pseudomonas aeruginosa W1; details: read-out: MIC
Text: as §1

[15] = system: Pseudomonas aeruginosa W19; details: read-out: MIC
Text: as §1

[16] = system: Acinetobacter baumannii C402; details: Acinetobacter baumannii C402; read-out: Minimum Inhibitory Concentration (MIC)
Text: as §1

[17] = system: Pseudomonas aeruginosa W4; details: read-out: MIC
Text: as §1

[18] = system: Pseudomonas aeruginosa W20; details: read-out: MIC
Text: as §1

[19] = system: Acinetobacter baumannii C332; details: Acinetobacter baumannii C332; read-out: Minimum Inhibitory Concentration (MIC)
Text: as §1

[20] = system: Acinetobacter baumannii C357; details: Acinetobacter baumannii C357; read-out: Minimum Inhibitory Concentration (MIC)
Text: as §1

[21] = system: Acinetobacter baumannii C390; details: Acinetobacter baumannii C390; read-out: Minimum Inhibitory Concentration (MIC)
Text: as §1

[22] = system: Acinetobacter baumannii C330; details: Acinetobacter baumannii C330; read-out: Minimum Inhibitory Concentration (MIC)
Text: as §1

[23] = system: Pseudomonas aeruginosa C745; details: read-out: MIC
Text: as §1

[24] = system: Acinetobacter baumannii C401; details: Acinetobacter baumannii C401; read-out: Minimum Inhibitory Concentration (MIC)
Text: as §1

[25] = system: Acinetobacter baumannii C319; details: Acinetobacter baumannii C319; read-out: Minimum Inhibitory Concentration (MIC)
Text: as §1

[26] = system: Pseudomonas aeruginosa W9; details: read-out: MIC
Text: as §1

[27] = system: Acinetobacter baumannii C312; details: Acinetobacter baumannii C312; read-out: Minimum Inhibitory Concentration (MIC)
Text: as §1

[28] = system: Acinetobacter baumannii C241; details: Acinetobacter baumannii C241; read-out: Minimum Inhibitory Concentration (MIC)
Text: as §1

[29] = system: Acinetobacter baumannii C361; details: Acinetobacter baumannii C361; read-out: Minimum Inhibitory Concentration (MIC)
Text: as §1

[30] = system: Acinetobacter baumannii C279; details: Acinetobacter baumannii C279; read-out: Minimum Inhibitory Concentration (MIC)
Text: as §1

[31] = system: Pseudomonas aeruginosa C763; details: read-out: MIC
Text: as §1

[32] = system: Pseudomonas aeruginosa W27; details: read-out: MIC
Text: as §1

[33] = system: Pseudomonas aeruginosa C755; details: read-out: MIC
Text: as §1

[34] = system: Acinetobacter baumannii C281; details: Acinetobacter baumannii C281; read-out: Minimum Inhibitory Concentration (MIC)
Text: as §1

[35] = system: Acinetobacter baumannii C251; details: Acinetobacter baumannii C251; read-out: Minimum Inhibitory Concentration (MIC)
Text: as §1

[36] = system: Acinetobacter baumannii C181; details: Acinetobacter baumannii C181; read-out: Minimum Inhibitory Concentration (MIC)
Text: as §1

[37] = system: Pseudomonas aeruginosa W46; details: read-out: MIC
Text: as §1

[38] = system: Pseudomonas aeruginosa C754; details: read-out: MIC
Text: as §1

[39] = system: Pseudomonas aeruginosa W47; details: read-out: MIC
Text: as §1

[40] = system: Acinetobacter baumannii C313; details: Acinetobacter baumannii C313; read-out: Minimum Inhibitory Concentration (MIC)
Text: as §1

[41] = system: Pseudomonas aeruginosa W29; details: read-out: MIC
Text: as §1

MIC [1]: 16 µg/mL (≈ 22.4 µM)
MIC [2]: 4 µg/mL (≈ 5.61 µM)
MIC [3]: 4 µg/mL (≈ 5.61 µM)
MIC [4]: 16 µg/mL (≈ 22.4 µM)
MIC [5]: 16 µg/mL (≈ 22.4 µM)
MIC [6]: 16 µg/mL (≈ 22.4 µM)
MIC [7]: 4 µg/mL (≈ 5.61 µM)
MIC [8]: > 16 µg/mL
MIC [9]: 16 µg/mL (≈ 22.4 µM)
MIC [10]: 16 µg/mL (≈ 22.4 µM)
MIC [11]: 16 µg/mL (≈ 22.4 µM)
MIC [12]: 2 µg/mL (≈ 2.81 µM)
MIC [13]: > 16 µg/mL
MIC [14]: 16 µg/mL (≈ 22.4 µM)
MIC [15]: 8 µg/mL (≈ 11.2 µM)
MIC [16]: 8 µg/mL (≈ 11.2 µM)
MIC [17]: 2 µg/mL (≈ 2.81 µM)
MIC [18]: 16 µg/mL (≈ 22.4 µM)
MIC [19]: 16 µg/mL (≈ 22.4 µM)
MIC [20]: 8 µg/mL (≈ 11.2 µM)
MIC [21]: 16 µg/mL (≈ 22.4 µM)
MIC [22]: 16 µg/mL (≈ 22.4 µM)
MIC [23]: > 16 µg/mL
MIC [24]: 8 µg/mL (≈ 11.2 µM)
MIC [25]: 16 µg/mL (≈ 22.4 µM)
MIC [26]: 16 µg/mL (≈ 22.4 µM)
MIC [27]: 16 µg/mL (≈ 22.4 µM)
MIC [28]: > 16 µg/mL
MIC [29]: 8 µg/mL (≈ 11.2 µM)
MIC [30]: 16 µg/mL (≈ 22.4 µM)
MIC [31]: > 16 µg/mL
MIC [32]: 16 µg/mL (≈ 22.4 µM)
MIC [33]: 4 µg/mL (≈ 5.61 µM)
MIC [34]: 16 µg/mL (≈ 22.4 µM)
MIC [35]: 16 µg/mL (≈ 22.4 µM)
MIC [36]: > 16 µg/mL
MIC [37]: 8 µg/mL (≈ 11.2 µM)
MIC [38]: 4 µg/mL (≈ 5.61 µM)
MIC [39]: 16 µg/mL (≈ 22.4 µM)
MIC [40]: 16 µg/mL (≈ 22.4 µM)
MIC [41]: 16 µg/mL (≈ 22.4 µM)
Compound: CC1(C)[C@H](NC(=O)/C(=N\O[C@@H](COc2ccc3c(c2)CN(C(=N)N(CCN)CCN)C3)C(=O)O)c2csc(N)n2)C(=O)N1OS(=O)(=O)O [Compound 45]
